Converted amounts (≈) assume the structure as drawn.
What was measured:
[1] = Organ uptake after injection of W/Re-188 generator eluant; format: in vivo; settings: 100 μCi
Procedure: Urine and later fecal accumulation (at 24 hours) is also observed.
Whole-mount sections of animals were prepared after tail vein injection of ^188Re elutant produced by a Rhenium generator at 100 μCi, which provides additional conformation of the anatomic localization of the images provided by gamma camera assessment. […] The bladder where the isotope is being eliminated is also visualized. Individual organs can be harvested and isotope counts can be determined per gram of tissue as a quantitative measure of radionuclide uptake.

U-87 MG xenograft = test: Survival with antiangiogenic compounds, glioma xenograft mouse model; format: in vivo, athymic mice; settings: P>0.5 logrank
Procedure: Testing the effect of antiangiogenic compounds on the survival of human glioma xenograft mouse model. Comparative survival analysis of the anticancer effect of different antiangiogenic treatments have been performed using the U-87 MG xenograft mouse model). PTK787/ZK 222584 was evaluated as a VEGFR inhibitor (Thomas et al., 2003); and imatinib/Glivec as a potent PDGFRβ inhibitor (Manley et al., 2002). Briefly, human glioma cells (5×10^5 U-87 MG) were engrafted into the caudate nucleus of athymic mice using a guide-screw system as previously described (Fueyo et al., 2003). […] Neither group treatment had long-term survivors.

U251 cells = test: Cell mixing experiments, Tc99O4 uptake after Δ24-NIS infection; format: cell-based, human; settings: U251 infected with Δ24-NIS
Procedure: Cells incubated with virus for 1.5 h then washed extensively and mixed at different percentages with uninfected U251 cells. Uptake assays were then performed at 48 h and values are given as fold increase (ratios) of Tc^99O4 within the cells compared to control cells.
U251MG and U87MG glioma cell lines are transiently transfected, then incubated with ^99mTcO4. These in vitro techniques are modifications of an assay developed by Petrich et al. (2002). Briefly, cells are plated into 24-well plates and allowed to achieve 90% confluence. Various titers of Δ24-NIS are added, incubating and infecting the cells for 2 h. The cells are then washed, and the assay performed at 24, 48, and 72 h. The cells are pre-incubated at 37° C. for 30 min in 1 ml of HEPES-buffered Hanks balanced salt solution (bHBSS). […] Cellular radioactivity is released with 1 ml ice-cold 100% ethanol for 20 min, and counted in a cross-calibrated gamma counter. Protein content of the 6 wells per cell line are determined using a BCA assay kit.
Because of the concern that an oncolytic virus could destroy the cells expressing the NIS transgene and blunt the ability to concentrate-adequate amounts of radionuclide, a study were performed to determine the percentage of cells required to obtain significant concentrations of isotope. […] The result is shown in FIG. 11 and is expressed as fold increase (ratios) over control cells.

[2] = system: hyCD stable-transfected U251MG cells; test: Cell viability assay, 5-FC dose response; format: cell-based, human
Procedure: (§1) Note the shift to the left of the IC50 curve for the hyCD stable-transfected U251MG cells in the presence of 5-FC. IC50 values for both cultures are indicated.
(§2) U251MG and U87MG cell lines were grown to 95% monolayer confluence. The cells were trypsinized and harvested with 0.25% trypsin/EDTA, plated in 6-well tissue culture plates, and allowed to adhere overnight at 37° C. in 5% CO2 humidified incubators. 5-FU or 5-FC in serial 0.5-log concentrations in 100 μl aliquots was added directly to the cells to achieve final concentrations, as previously described (Miller, 2002). Cells were incubated at 37° C. for 5 days and cell viability by cellular respiration was determined using 3-(4,5-methylthiazole-2-yl)-5-(3-carboxymethoxy-phenyl)-2-(4-sulfonyl)-2H-tetrazolium) (Promega, Madison, Wis.) according to the manufacturer's protocol. The cell survival fraction was measured at each drug concentration as the ratio of absorbance at 490 nm relative to untreated cells. This calculation was normalized for background absorbance of the culture medium alone. The cell survival fraction was plotted against the logarithm of the drug concentration, and IC50 values were calculated using a sigmoidal dose-response curve with variable slope in GraphPad Prism 3.01.

parental U251MG cells = test: Cell viability assay, 5-FC dose response; format: cell-based; settings: Homo sapiens, U-251, 120 h, 5 days
Procedure: as §1, §2

EGFRvIII = target: T1, EGFRvIII (Homo sapiens, UniProt P00533, DELINS30-297G); test: Membrane fluorescence staining with anti-EGFRvIII peptide-FITC, flow cytometry; format: binding; settings: 1 μM, 30 min
T1 construct: expressed in transfected cells; host or cells: U-87 MG stably transfected with mutant EGFR (U87MG.ΔEGFR; Nishikawa et al., 1994)
Procedure: Briefly, the inventors performed membrane fluorescence staining of single-cell suspensions after incubating U-87 MG, U87.wtEGFR, and U-87.ΔEGFRvIII (Nishikawa et al., 1994) with the anti-EGFRvIII peptide (PEPCH1)-FITC (1 μM) (Campa et al., 2000) for 30 min. The cells were then washed twice with PBS and then analyzed for fluorescence with an EPICS XL-MCL flow cytometer (Beckman-Coulter Inc., Miami, Fla.) using a 488 nm argon laser for excitation. Fluorescence was detected with a 520 nm band-pass filter, and all cytometric data was analyzed with the System II software (Beckman-Coulter Inc.). Data are shown as the percentages of FICT-positive cells (empty graph) compared to mock-treated cells (solid graphs) from a representative experiment.

HU-VEC-C = test: Tube formation (vascular-like structures) assay; format: cell-based, human; settings: 400-800 ng/ML, 18 h
Procedure: This assay will be performed using an in vitro angiogenesis kit (Chemicon, Temecula, Calif.) according to the manufacturer's instructions. Wells in a 96-well plate will be coated with ECMatrix solution, and 5×10^3 cells will be plated in triplicate wells in a volume of 50 μl of EGM (Clonetics Corp.) containing 2% FBS. The cells will be incubated for 18 h at 37° C., and tube formation will be evaluated by phase-contract microscopy. To determine the viability of cells in these assays, cells will be stained with Hoechst 33342 (5 μg/ml, Sigma) and propidium iodide (2.5 μg/ml, Sigma) for 5 min at 37° C. and analyzed by fluorescence microscopy.
These studies were performed to elucidate the role of Ang-2 role in the process of angiogenesis.

Tie2 = Tie2 (Homo sapiens, UniProt Q02763); test: Tie2 phosphorylation, immunoprecipitation; format: cell-based; settings: U-87 MG
Tie2, sequence (Q02763 23-1124): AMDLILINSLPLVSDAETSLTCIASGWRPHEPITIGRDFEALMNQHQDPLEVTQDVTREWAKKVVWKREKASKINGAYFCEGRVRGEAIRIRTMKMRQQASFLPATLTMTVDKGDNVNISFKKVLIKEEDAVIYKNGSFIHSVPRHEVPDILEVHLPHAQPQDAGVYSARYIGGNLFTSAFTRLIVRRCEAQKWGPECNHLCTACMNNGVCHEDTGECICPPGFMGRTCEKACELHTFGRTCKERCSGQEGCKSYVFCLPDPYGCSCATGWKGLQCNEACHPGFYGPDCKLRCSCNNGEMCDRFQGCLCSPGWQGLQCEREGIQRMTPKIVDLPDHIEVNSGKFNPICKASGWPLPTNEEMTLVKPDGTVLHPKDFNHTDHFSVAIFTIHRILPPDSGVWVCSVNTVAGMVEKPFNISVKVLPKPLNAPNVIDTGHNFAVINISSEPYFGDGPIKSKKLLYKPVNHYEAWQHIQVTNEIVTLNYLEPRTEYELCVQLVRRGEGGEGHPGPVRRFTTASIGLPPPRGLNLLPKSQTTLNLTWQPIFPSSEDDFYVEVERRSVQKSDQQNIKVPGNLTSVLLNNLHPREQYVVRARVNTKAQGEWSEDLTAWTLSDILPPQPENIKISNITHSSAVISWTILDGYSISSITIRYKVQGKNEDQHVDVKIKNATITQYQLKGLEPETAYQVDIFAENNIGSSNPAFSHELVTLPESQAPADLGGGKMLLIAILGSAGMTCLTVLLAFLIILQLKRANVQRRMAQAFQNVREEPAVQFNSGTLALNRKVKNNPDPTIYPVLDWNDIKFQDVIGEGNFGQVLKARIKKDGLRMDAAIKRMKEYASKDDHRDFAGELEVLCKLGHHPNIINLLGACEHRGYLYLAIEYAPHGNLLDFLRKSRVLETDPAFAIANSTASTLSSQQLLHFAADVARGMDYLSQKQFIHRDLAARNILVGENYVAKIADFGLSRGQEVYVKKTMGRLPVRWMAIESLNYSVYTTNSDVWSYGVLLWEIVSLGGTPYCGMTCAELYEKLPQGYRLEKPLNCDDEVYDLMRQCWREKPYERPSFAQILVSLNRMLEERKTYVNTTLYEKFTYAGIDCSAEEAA
Procedure: To explore the regulation of Tie2 signaling by Angs in U-87 MG cells, Tie2 was immunoprecipitated from membrane fractions of U-87 MG cells treated with rAng1 (500 ng/ml) for 10 min, and phosphorylation of Tie2 was addressed using anti-phosphotyrosine antibody.

CAM = test: Angiogenesis in vivo, CAM model; parameters: species or system chicken; settings: 72 h after treatment
Procedure: Fertilized chicken eggs (SPAFAS; Charles River Lab., Wilmington, Mass.) will be incubated at 37° C. at 55% humidity for 9 days. An artificial air sac will be created over a region containing small blood vessels in the CAM as described (Brooks et al., 1999). A small window will be cut in the shell after removing 3 ml of albumen. Filter disks (6 mm in diameter) will be coated with cortisone acetate in absolute ethanol (3 mg/mL). The CAM will be locally treated with filter disks saturated with a solution containing bFGF (50 ng/disk; R&D Systems, Minneapolis, Minn.) and VEGF121/rGel (at 1 or 10 nM), rGel (at 1 or 10 nM), or buffer (PBS). The filter will be placed on the CAM in a region with the lowest density of blood vessels, and in the vicinity, as reference, of a large vessel. Angiogenesis will be monitored by photography 3 days after treatment. Images will be captured using an Olympus stereomicroscope (SZ×12) and Spot™ Basic software (Diagnostic Instruments, Inc.). The relative vascular area will be determined by measuring the area taken up by blood vessels. […] The number of blood vessel branch points will be quantify by two researchers, and compared to the treatment controls (Brooks et al., 1999).
Ang-2 inhibits angiogenesis in vivo (CAM model). […] Vascular responses were assessed 72 h later.

[3] = cited from earlier work

In the case of `[O]=[188Re](=[O])(=[O])[O-]` [^188ReO4, Rhenium-188 perrenate], the “tissues with uptake of 188ReO4” value [1] is reported as “thyroid and stomach”.

With `Cc1ccc(NC(=O)c2ccc(CN3CCN(C)CC3)cc2)cc1Nc1nccc(-c2cccnc2)n1` [Imatinib] the survival versus vehicle (U-87 MG xenograft) was “did not significantly improve the survival”.

With `[O-][Cl+3]([O-])([O-])O` [sodium perchlorate] the “inhibition of NIS activity” value (U251 cells) was “complete inhibition of NIS activity”.

In the case of `Nc1nc(=O)[nH]cc1F` [5-FC, 5-fluorocytosine], the IC50 ([2]; Homo sapiens, U-251, 120 h, U251MG cells expressing hyCD, 5 days) is reported as 12.4 mg/L (≈ 0.0961 mM), the “increased sensitivity of hyCD-expressing versus parental cells to 5-FC” value ([2]; U251MG) is reported as “approximately 3 orders of magnitude” and the IC50 (parental U251MG cells) is reported as 3090 mg/L (≈ 24 mM).

For `Clc1ccc(Nc2nnc(Cc3ccncc3)c3ccccc23)cc1` [PTK787], the survival versus vehicle (U-87 MG xenograft) was “did not significantly improve the survival”.

For “HFLIIGFMRRALCGA [PEPCH1, anti-EGFRvIII peptide, FITC-labeled]”, the “binding to EGFRvIII-expressing cells” value (EGFRvIII) was “specific binding”.

In the case of “rhAng-2: recombinant angiopoietin 2 protein”, the “formation of vascular-like structures” value (HU-VEC-C) is reported as “lost their ability to form vascular-like structures”, the “effect on Ang1-induced Tie2 phosphorylation” value (Tie2) is reported as “Inhibition of Tie2 phosphorylation” and the “vascular response in CAM” value (CAM) is reported as “dramatically decreased newly sprouting angiogenic vessels”.

B1: bakers' yeast CD: cytosine deaminase previously isolated from Saccharomyces cerevisiae (protein, UniProt Q12178 1-158, looked up)
Cytosine deaminase: MVTGGMASKWDQKGMDIAYEEAALGYKEGGVPIGGCLINNKDGSVLGRGHNMRFQKGSATLHGEISTLENCGRLEGKVYKDTTLYTTLSPCDMCTGAIIMYGIPRCVVGENVNFKSKGEKYLQTRGHEVVVVDDERCKKIMKQFIDERPQDWFEDIGE
For B1, the “time activity is maintained in solution” value ([3]; 4° C., pH 5-9) is listed as “at least 48 hr” and the “time to lose half of activity” value ([3]; 37° C., crude preparation) is listed as 1 h.

Source: patent US10080774B2, “Oncolytic adenovirus armed with therapeutic genes” (priority 2002, dated 2018)
